Data taken from ChEMBL document CHEMBL1955843, “Novel hepatitis C virus replicon inhibitors: synthesis and structure-activity relationships of fused pyrimidine derivatives” (Bioorg Med Chem Lett, 2012).
pEC50: −log10 of the molar value.

Assays:
[1] = Cytotoxicity against human HuH7 cells by MTT assay; format: cell-based, Huh-7; details: read-out: TD50 (the source's name)
Hepatitis C virus [2] = test: Antiviral activity against Hepatitis C virus subtype 1a infected in HuH7 cells assessed as inhibition of viral replication by RT-PCR analysis in the presence of fetal calf serum; format: functional, organism-based, Hepacivirus hominis; details: Huh-7
Hepatitis C virus [3] = test: Antiviral activity against Hepatitis C virus subtype 1b infected in HuH7 cells assessed as inhibition of viral replication by RT-PCR analysis in the presence of fetal calf serum; format: functional, organism-based, Hepacivirus hominis; details: genotype 1b, Huh-7
Rattus norvegicus [4] = test: AUC in rat plasma at 2.5 mg/kg, po; format: ADME, organism-based; set-up: dose 2.5 mg/kg, route oral; details: in vivo
[5] = Cmax in rat at 2.5 mg/kg, po; format: ADME, organism-based; set-up: dose 2.5 mg/kg, route oral; details: in vivo
Rattus norvegicus [6] = test: Oral bioavailability in rat at 2.5 mg/kg; format: ADME, organism-based; details: in vivo
[7] = Half life in rat at 2.5 mg/kg, po and 2.5 mg/kg, iv; format: ADME, organism-based; details: in vivo
Hepatitis C virus [8] = test: Antiviral activity against Hepatitis C virus subtype 1b infected in HuH7 cells assessed as inhibition of viral replication by RT-PCR analysis in the presence of human serum; format: functional, organism-based, Hepacivirus hominis; details: genotype 1b, Huh-7
Rattus norvegicus [9] = test: Clearance in rat at 2.5 mg/kg, po and 2.5 mg/kg, iv; format: ADME, organism-based; details: in vivo
[10] = Ratio of EC50 for HCV subtype 1a to EC50 for HCV subtype 1b; format: functional

SMILES | CC50 [1] | pEC50 (Hepatitis C virus [2]) | pEC50 (Hepatitis C virus [3]) | other results
CC(=O)Nc1ccc(Sc2ccc(C)cc2Nc2ncnc3nc(C)ccc23)cc1 | > 50 µM | < 4.30 | < 4.30 | 
CCSc1ncc2c(Nc3cc(C)ccc3Sc3ccc(O)cc3)ncnc2n1 | 46.9 µM | 5.32 | 8.00 | 
COc1ncc2c(Nc3cc(C)ccc3Sc3ccc(O)cc3)ncnc2n1 | > 8 µM | < 5.10 | < 5.10 | 
CCCc1ccc2c(Nc3cc(C)ccc3Sc3ccc(NC(C)=O)cc3)ncnc2n1 | > 25 µM | 4.86 | 6.20 | 
Cc1ccc(Sc2ccc(O)cc2)c(Nc2ncnc3nc(C4CCCCC4)ccc23)c1 | > 3.12 µM | 5.57 | 6.06 | 
Cc1ccc(Sc2ccc(NS(C)(=O)=O)cc2)c(Nc2ncnc3nc(C(C)C)ccc23)c1 | > 50 µM | 4.72 | 4.95 | 
CC(=O)Nc1ccc(Sc2ccc(C)cc2Nc2ncnc3nc(C4CC4)ccc23)cc1 | 29.8 µM | 4.82 | 5.77 | 
CCNc1ncc2c(Nc3cc(C)ccc3Sc3ccc(O)cc3)ncnc2n1 | > 50 µM | 4.32 | 4.52 | 
CC(=O)Nc1ccc(Sc2ccc(C)cc2Nc2ncnc3nc(C4CCC4)ccc23)cc1 | 49.2 µM | 4.80 | 5.43 | 
Cc1ccc(Sc2ccc(O)cc2)c(Nc2ncnc3nc(C(C)C)ccc23)c1 | 22.9 µM | 6.77 | 7.80 | AUC (Rattus norvegicus [4]): 1.58 µg·h/mL; Cmax [5]: 70 nM; F (Rattus norvegicus [6]): 10%; half-life [7]: 186 min; pEC50 (Hepatitis C virus [8]): 6.77; CL (Rattus norvegicus [9]): 1.58 L/h/kg
Cc1ccc(Sc2ccccc2)c(Nc2ncnc3nc(C)ccc23)c1 | 22.2 µM | 4.88 | 5.42 | 
Cc1ccc(Sc2ccc(O)cc2)c(Nc2ncnc3nc(C(C)(C)C)ccc23)c1 | 7.1 µM | 5.34 | 6.33 | 
Cc1ccc(Sc2ccc(O)cc2)c(Nc2ncnc3nc(C)ccc23)c1 | > 100 µM | 4.63 | 7.30 | 
Cc1ccc(Sc2ccccc2)c(Nc2cccc3nc(C)ccc23)c1 | 15.9 µM | 4.80 | 5.00 | 
Cc1ccc(Sc2ccc(F)cc2)c(Nc2ncnc3nc(C(C)C)ccc23)c1 | 4.8 µM | 5.49 | 5.74 | 
Cc1ccc(Sc2ccc(O)cc2)c(Nc2ncnc3nc(C4CC4)ccc23)c1 | 17.4 µM | 4.98 | 5.80 | 
Cc1ccc(Sc2ccccc2)c(Nc2ncnc3nc(CC(C)C)ccc23)c1 | 7.5 µM | 4.88 | 6.00 | 
CCc1ccc2c(Nc3cc(C)ccc3Sc3ccc(O)cc3)ncnc2n1 | 78 µM | 4.21 | 5.00 | 
Cc1ccc(Sc2ccccc2)c(Nc2ncnc3nc(C4CC4)ccc23)c1 | 9.9 µM | 4.98 | 5.43 | 
CC(=O)Nc1ccc(Sc2ccc(C)cc2Nc2ncnc3nc(C(C)C)ccc23)cc1 | 28.8 µM | 5.59 | 4.86 | 

SMILES | CC50 [1] | pEC50 (Hepatitis C virus [2]) | pEC50 (Hepatitis C virus [3]) | other results
Cc1ccc(Sc2ccc(O)cc2)c(Nc2ncnc3nc(N(C)C)ncc23)c1 | > 50 µM | < 4.30 | < 4.30 | 
CCc1ccc2c(Nc3cc(C)ccc3Sc3ccc(NC(C)=O)cc3)ncnc2n1 | > 12.5 µM | < 4.90 | 5.16 | 
CCOc1ncc2c(Nc3cc(C)ccc3Sc3ccc(O)cc3)ncnc2n1 | 29.7 µM | 5.14 | 4.92 | 
Cc1ccc(Sc2ccc(O)cc2)c(Nc2ncnc3nc(C4CCC4)ccc23)c1 | 31.8 µM | 4.95 | 5.51 | 
Cc1ccc(Sc2ccc(O)cc2)c(Nc2ncnc3nc(N4CCCCC4)ncc23)c1 | > 50 µM | 4.66 | 5.55 | 
COc1ccc(Sc2ccc(C)cc2Nc2ncnc3nc(C(C)C)ccc23)cc1 | 8.8 µM | 4.94 | 5.77 | 
Cc1ccc(Sc2ccc(O)cc2)c(Nc2ncnc3nc(CC(C)C)ccc23)c1 | 11.2 µM | 4.84 | 5.62 | 
CCCc1ccc2c(Nc3cc(C)ccc3Sc3ccc(O)cc3)ncnc2n1 | 31.1 µM | 5.15 | 6.60 | 
Cc1ccc(Sc2ccc(F)cc2)c(Nc2ncnc3nc(C)ccc23)c1 | 6.1 µM | 4.98 | 5.52 | 
Cc1ccc(Sc2ccccc2)c(Nc2ccnc3cc(C)ccc23)c1 | 2.6 µM |  | 5.74 | 
Cc1ccc(Sc2ccc(O)cc2)c(Nc2ncnc3nc(Oc4ccccc4)ncc23)c1 | 17.1 µM | 5.28 | 5.46 | 
COc1ccc(Sc2ccc(C)cc2Nc2ncnc3nc(C)ccc23)cc1 | 28.6 µM | 4.35 | 4.88 | 
Cc1ccc(Sc2ccccc2)c(Nc2ncnc3nc(C4CCC4)ccc23)c1 | 3.6 µM | 5.21 | 5.80 | 
CCc1ccc2c(Nc3cc(C)ccc3Sc3ccccc3)ncnc2n1 | 22.7 µM | 4.72 | 5.47 | 
Cc1ccc(Sc2ccccc2)c(Nc2ccnc3nc(C)ccc23)c1 | 8.6 µM | 5.74 | 7.74 | Ratio EC50 [10]: 100
Cc1ccc(Sc2ccc(O)cc2)c(Nc2ncnc3nc(N4CCOCC4)ncc23)c1 | > 50 µM | 4.85 | 5.14 | 
CCCc1ccc2c(Nc3cc(C)ccc3Sc3ccccc3)ncnc2n1 | 11.8 µM | 5.02 | 6.49 | 
CC(=O)Nc1ccc(Sc2ccc(C)cc2Nc2ncnc3nc(CC(C)C)ccc23)cc1 | 38.5 µM | 4.56 | 5.48 | 
Cc1ccc(Sc2ccccc2)c(Nc2ncnc3nc(C(C)C)ccc23)c1 | 8 µM | 4.99 | 5.47 | 
